Values joined by “and” are separate entries in the source; they are usually repeats but may differ in a detail not shown here. Equal entries are not always repeated. Inconclusive results and toxic doses are left out.
Test system: BDF1 mice, L1210 leukemia sc, survival T/C
Assay: NCI In Vivo Anticancer Drug Screen. Data for tumor model L1210 Leukemia (subcutaneous) in B6D2F1 (BDF1) mice
Settings: endpoint: median survival time, higher = longer survival
Method: The antitumor activity of compounds was measured in mice bearing transplantable tumors. Survival or tumor size were measured and the results are expressed as the measurement made in the treated group (T) divided by the measurement made in the vehicle treated control group (C). The tumor model used in this assay is L1210 Leukemia (subcutaneous) in B6D2F1 (BDF1) mice

[1] = dose: 14.0 mg/kg/injection, schedule: Q01DX Z (sc), vehicle: carboxymethylcellulose (CMC)
[2] = dose: 23.0 mg/kg/injection, schedule: Q01DX Z (sc), vehicle: carboxymethylcellulose (CMC)

With `CC1CCC(NC(=O)N(CCCl)N=O)CC1` (stereo not drawn) the T/C (dose: 5.0 mg/kg/injection, schedule: Q03HX008 (sc), vehicle: saline) was 322 % of control and 333 % of control, the T/C (dose: 6.25 mg/kg/injection, schedule: Q04DX008 (sc), vehicle: saline) was 681 % of control and 690 % of control and the T/C (dose: 12.5 mg/kg/injection, schedule: Q01DX001 (sc), vehicle: saline) was 120 % of control. The T/C (dose: 12.5 mg/kg/injection, schedule: Q04DX008 (sc), vehicle: saline) was 370 % of control and 403 % of control, the T/C (dose: 25.0 mg/kg/injection, schedule: Q04DX008 (sc), vehicle: saline) was 119 % of control and 120 % of control and the T/C (dose: 50.0 mg/kg/injection, schedule: Q04DX001 (sc), vehicle: saline) was 215 % of control and 257 % of control. The T/C (dose: 50.0 mg/kg/injection, schedule: Q04DX008 (sc), vehicle: saline) was 104 % of control and 105 % of control, the T/C (dose: 100.0 mg/kg/injection, schedule: Q04DX001 (sc), vehicle: saline) was 230 % of control and the T/C (dose: 200.0 mg/kg/injection, schedule: Q04DX001 (sc), vehicle: saline) was 120 % of control and 121 % of control. For the same compound, the T/C (dose: 400.0 mg/kg/injection, schedule: Q04DX001 (sc), vehicle: saline) was 150 % of control and 151 % of control.

For `CN(O)C(N)=O`, the T/C (dose: 360.0 mg/kg/injection, schedule: Q01DX Z (sc), vehicle: saline) was 150 % of control.

For `CN(C)CCNc1ccc([N+](=O)[O-])c2sc3ccccc3c(=O)c12`, the T/C [1] was 100 % of control, the T/C [2] was 100 % of control and the T/C (dose: 39.0 mg/kg/injection, schedule: Q01DX Z (sc), vehicle: carboxymethylcellulose (CMC)) was 100 % of control. The T/C (dose: 65.0 mg/kg/injection, schedule: Q01DX Z (sc), vehicle: carboxymethylcellulose (CMC)) was 100 % of control and 111 % of control, the T/C (dose: 108.0 mg/kg/injection, schedule: Q01DX Z (sc), vehicle: carboxymethylcellulose (CMC)) was 100 % of control and the T/C (dose: 180.0 mg/kg/injection, schedule: Q01DX Z (sc), vehicle: carboxymethylcellulose (CMC)) was 111 % of control. The T/C (dose: 300.0 mg/kg/injection, schedule: Q01DX Z (sc), vehicle: carboxymethylcellulose (CMC)) was 105 % of control.

With `Nc1nc(=S)c2ncn(C3OC(COC(=O)c4ccccc4)C(OC(=O)c4ccccc4)C3OC(=O)c3ccccc3)c2[nH]1` (stereo not drawn) the T/C (dose: 23.0 mg/kg/injection, schedule: Q01DX Z (sc), vehicle: methylcellulose (MC)) was 100 % of control, the T/C (dose: 39.0 mg/kg/injection, schedule: Q01DX Z (sc), vehicle: methylcellulose (MC)) was 100 % of control and the T/C (dose: 65.0 mg/kg/injection, schedule: Q01DX Z (sc), vehicle: methylcellulose (MC)) was 110 % of control. The T/C (dose: 108.0 mg/kg/injection, schedule: Q01DX Z (sc), vehicle: methylcellulose (MC)) was 100 % of control and 112 % of control, the T/C (dose: 180.0 mg/kg/injection, schedule: Q01DX Z (sc), vehicle: methylcellulose (MC)) was 108 % of control and the T/C (dose: 300.0 mg/kg/injection, schedule: Q01DX Z (sc), vehicle: methylcellulose (MC)) was 100 % of control. The T/C (dose: 500.0 mg/kg/injection, schedule: Q01DX Z (sc), vehicle: methylcellulose (MC)) was 91 % of control.

With `Nc1cc(C(=O)Nc2ccc(C3=NCCN3)cc2)ccc1C(=O)Nc1ccc(C2=NCCN2)cc1` the T/C (dose: 1.0 mg/kg/injection, schedule: Q01DX Z (iv), vehicle: water) was 100 % of control, the T/C (dose: 2.0 mg/kg/injection, schedule: Q01DX Z (iv), vehicle: water) was 100 % of control and the T/C (dose: 2.0 mg/kg/injection, schedule: Q01DX Z (sc), vehicle: water) was 110 % of control. The T/C (dose: 4.0 mg/kg/injection, schedule: Q01DX Z (iv), vehicle: water) was 120 % of control, the T/C (dose: 4.0 mg/kg/injection, schedule: Q01DX Z (sc), vehicle: water) was 215 % of control and the T/C (dose: 8.0 mg/kg/injection, schedule: Q01DX Z (iv), vehicle: water) was 215 % of control. For the same compound, the T/C (dose: 8.0 mg/kg/injection, schedule: Q01DX Z (sc), vehicle: water) was 230 % of control, the T/C (dose: 16.0 mg/kg/injection, schedule: Q01DX Z (iv), vehicle: water) was 215 % of control and the T/C (dose: 16.0 mg/kg/injection, schedule: Q01DX Z (sc), vehicle: water) was 245 % of control. The T/C (dose: 32.0 mg/kg/injection, schedule: Q01DX Z (sc), vehicle: water) was 195 % of control.

With `O=NN(CCCl)C(=O)NC1CCCCC1` the T/C (dose: 2.5 mg/kg/injection, schedule: Q01DX009 (sc), vehicle: other) was 123 % of control, the T/C (dose: 3.0 mg/kg/injection, schedule: Q01DX Z (sc), vehicle: carboxymethylcellulose (CMC)) was 110 % of control and the T/C (dose: 5.0 mg/kg/injection, schedule: Q01DX009 (sc), vehicle: other) was 158 % of control. The T/C (dose: 5.0 mg/kg/injection, schedule: Q01DX Z (oral), vehicle: carboxymethylcellulose (CMC)) was 221 % of control, the T/C (dose: 5.0 mg/kg/injection, schedule: Q01DX Z (sc), vehicle: carboxymethylcellulose (CMC)) was 120 % of control and the T/C (dose: 8.0 mg/kg/injection, schedule: Q01DX009 (ip), vehicle: other) was 152 % of control. The T/C (dose: 8.4 mg/kg/injection, schedule: Q01DX Z (oral), vehicle: carboxymethylcellulose (CMC)) was 447 % of control, the T/C (dose: 8.4 mg/kg/injection, schedule: Q01DX Z (sc), vehicle: carboxymethylcellulose (CMC)) was 315 % of control and 421 % of control and the T/C (dose: 8.4 mg/kg/injection, schedule: Q07DX Z (sc), vehicle: carboxymethylcellulose (CMC)) was 100 % of control. For the same compound, the T/C (dose: 10.0 mg/kg/injection, schedule: Q01DX009 (sc), vehicle: other) was 160 % of control, the T/C (dose: 14.0 mg/kg/injection, schedule: Q01DX001 (sc), vehicle: carboxymethylcellulose (CMC)) was 120 % of control and the T/C (dose: 14.0 mg/kg/injection, schedule: Q01DX Z (oral), vehicle: carboxymethylcellulose (CMC)) was 410 % of control. The T/C [1] was 400 % of control and 560 % of control, the T/C (dose: 14.0 mg/kg/injection, schedule: Q07DX Z (sc), vehicle: carboxymethylcellulose (CMC)) was 165 % of control and the T/C (dose: 20.0 mg/kg/injection, schedule: Q01DX009 (sc), vehicle: other) was 163 % of control. For the same compound, the T/C (dose: 23.0 mg/kg/injection, schedule: Q01DX001 (sc), vehicle: carboxymethylcellulose (CMC)) was 150 % of control, the T/C (dose: 23.0 mg/kg/injection, schedule: Q01DX Z (oral), vehicle: carboxymethylcellulose (CMC)) was 215 % of control and the T/C [2] was 265 % of control and 273 % of control. For the same compound, the T/C (dose: 23.0 mg/kg/injection, schedule: Q07DX Z (sc), vehicle: carboxymethylcellulose (CMC)) was 170 % of control, the T/C (dose: 32.0 mg/kg/injection, schedule: Q01DX009 (ip), vehicle: other) was 120 % of control and the T/C (dose: 39.0 mg/kg/injection, schedule: Q01DX001 (sc), vehicle: carboxymethylcellulose (CMC)) was 295 % of control. The T/C (dose: 39.0 mg/kg/injection, schedule: Q01DX Z (oral), vehicle: carboxymethylcellulose (CMC)) was 157 % of control, the T/C (dose: 39.0 mg/kg/injection, schedule: Q07DX Z (sc), vehicle: carboxymethylcellulose (CMC)) was 750 % of control and the T/C (dose: 65.0 mg/kg/injection, schedule: Q01DX001 (sc), vehicle: carboxymethylcellulose (CMC)) was 355 % of control. For the same compound, the T/C (dose: 65.0 mg/kg/injection, schedule: Q07DX Z (sc), vehicle: carboxymethylcellulose (CMC)) was 330 % of control and the T/C (dose: 108.0 mg/kg/injection, schedule: Q01DX001 (sc), vehicle: carboxymethylcellulose (CMC)) was 750 % of control.

For `COC(=O)c1[nH]c(=O)[nH]c(=O)c1F`, the T/C (dose: 5.0 mg/kg/injection, schedule: Q01DX Z (sc), vehicle: methylcellulose (MC)) was 111 % of control, the T/C (dose: 10.0 mg/kg/injection, schedule: Q01DX Z (sc), vehicle: methylcellulose (MC)) was 158 % of control and the T/C (dose: 20.0 mg/kg/injection, schedule: Q01DX Z (sc), vehicle: methylcellulose (MC)) was 164 % of control. For the same compound, the T/C (dose: 40.0 mg/kg/injection, schedule: Q01DX Z (sc), vehicle: methylcellulose (MC)) was 158 % of control and the T/C (dose: 80.0 mg/kg/injection, schedule: Q01DX Z (sc), vehicle: methylcellulose (MC)) was 152 % of control.

`COC12C(COC(N)=O)C3=C(C(=O)C(C)=C(N)C3=O)N1CC1C2N1C` (stereo not drawn) was tested, and the T/C (dose: 1.8 mg/kg/injection, schedule: Q01DX Z (sc), vehicle: saline) was 100 % of control, the T/C (dose: 2.0 mg/kg/injection, schedule: Q01DX009 (ip), vehicle: saline) was 101 % of control and the T/C (dose: 2.0 mg/kg/injection, schedule: Q01DX009 (sc), vehicle: saline) was 103 % of control and 106 % of control. For the same compound, the T/C (dose: 3.0 mg/kg/injection, schedule: Q01DX Z (sc), vehicle: saline) was 100 % of control, the T/C (dose: 4.0 mg/kg/injection, schedule: Q01DX009 (ip), vehicle: saline) was 106 % of control and the T/C (dose: 4.0 mg/kg/injection, schedule: Q01DX009 (sc), vehicle: saline) was 104 % of control and 105 % of control. For the same compound, the T/C (dose: 5.0 mg/kg/injection, schedule: Q01DX Z (sc), vehicle: saline) was 100 % of control, the T/C (dose: 8.0 mg/kg/injection, schedule: Q01DX009 (ip), vehicle: saline) was 116 % of control and the T/C (dose: 8.0 mg/kg/injection, schedule: Q01DX009 (sc), vehicle: saline) was 107 % of control and 112 % of control. The T/C (dose: 8.4 mg/kg/injection, schedule: Q01DX Z (sc), vehicle: saline) was 100 % of control, the T/C (dose: 16.0 mg/kg/injection, schedule: Q01DX009 (sc), vehicle: saline) was 116 % of control and the T/C (dose: 32.0 mg/kg/injection, schedule: Q01DX009 (sc), vehicle: saline) was 92 % of control and 117 % of control.
